Measured values published in patent US20110144159A1, “ETHER BENZYLIDENE PIPERIDINE ARYL CARBOXAMIDE COMPOUNDS USEFUL AS FAAH INHIBITORS” (Pfizer Inc, priority 2008, published 2011).

target: T1, Human FAAH (Homo sapiens, UniProt O00519); experiment: FAAH assay (glutamate dehydrogenase-coupled, oleamide substrate, absorbance at 340 nm); type: biochemical; conditions: irreversible inhibition potency
T1 construct: made in house
T1 sequence (O00519 32-579 limits assumed): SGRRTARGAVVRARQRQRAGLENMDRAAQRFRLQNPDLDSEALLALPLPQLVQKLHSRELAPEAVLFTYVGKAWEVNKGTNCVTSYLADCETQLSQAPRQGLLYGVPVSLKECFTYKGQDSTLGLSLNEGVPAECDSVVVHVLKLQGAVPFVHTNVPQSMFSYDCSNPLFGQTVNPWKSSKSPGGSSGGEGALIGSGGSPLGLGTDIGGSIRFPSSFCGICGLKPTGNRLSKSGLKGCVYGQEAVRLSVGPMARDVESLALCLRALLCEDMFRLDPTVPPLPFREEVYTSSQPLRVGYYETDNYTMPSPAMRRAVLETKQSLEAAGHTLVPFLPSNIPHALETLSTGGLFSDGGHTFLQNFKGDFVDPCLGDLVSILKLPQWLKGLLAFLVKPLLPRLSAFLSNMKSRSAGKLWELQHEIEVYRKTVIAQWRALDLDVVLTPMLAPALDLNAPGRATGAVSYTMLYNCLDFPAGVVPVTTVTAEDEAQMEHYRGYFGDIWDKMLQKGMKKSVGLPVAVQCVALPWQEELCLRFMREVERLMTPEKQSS
Experimental: A FAAH assay may be carried out in 384-well clear polystyrene plates in a total volume of 50 μl per well. All percents are by volume. To each well was placed the reaction mixture (40 μl) containing 1-4 nM FAAH, 50 mM NaPi, pH 7.4, 3 mM α-ketoglutarate, 0.15 mM NADH, 7.5 U/ml glutamate dehydrogenase, 2 mM ADP, 1 mM EDTA, and 0.1% Triton X-100 (The concentration shown for each component was the final concentration in the assay). To this mixture was added 5 μl of a compound of Examples 1 to 20 at various concentrations prepared in 50% DMSO (or 5 μl 50% DMSO for controls). This was immediately followed by the addition of 5 μl oleamide (500 μM) dissolved in 75% EtOH/25% DMSO and the reaction mixture was mixed for 1.5 min. The final concentrations of DMSO and EtOH in the assay are each 7.5%. The reactions was then incubated at 30° C. and the absorbance at 340 nm was collected over a period of 90 min with readings taken in 30-second intervals using SpectraMax Plus^384 Microplate Spectrophotometer (Molecular Devices, Sunnyvale, Calif.). Human FAAH used in the assay was prepared as described in the patent application WO 2006/067613. The purity of the enzyme used was greater than 98% based on an analysis by SDS-polyacrylamide gel electrophoresis followed by Coomassie Blue staining.
Initial velocity data (V) is obtained from the slopes of the initial progressive curves. They are plotted as a function of substrate concentration and fit to the Michaelis-Menten equation (1) using Prism (GraphPad Software, Inc., San Diego, Calif.) software to obtain Km and Vmax values.
To obtain potencies of irreversible inhibitors, progressive curves consistent with first order inhibition kinetics (two-step irreversible inhibition mechanism) are fit to equation (2) by nonlinear least squares regressions to determine kobs values at each inhibitor concentration, where [P]t is the absorbance at time t, V0 is a constant related to the steady state rate of the uninhibited reaction, and kobs is the first order rate constant for enzyme inactivation. The inhibitor dissociation constant (Ki) and the first order rate
constant of enzyme inactivation at infinite inhibitor concentration (kinact) are then obtained by fitting the kobs vs. [I] curves to equation (3).

| hFAAH KInact/K [M⁻¹ s⁻¹] | SMILES |
| --- | --- |
| 131 | Cc1cc(COc2cccc(C=C3CCN(C(=O)Nc4cccnn4)CC3)c2)c(C(F)(F)F)o1 [Example 63, 4-(3-{[5-methyl-2-(trifluoromethyl)-3-furyl]methoxy}benzylidene)-N-pyridazin-3-ylpiperidine-1-carboxamide] |
| 379 | CCC(Oc1cccc(C=C2CCN(C(=O)Nc3cccnn3)CC2)c1)C(C)C (stereo not drawn) [Example 64, 4-[3-(1-ethyl-2-methylpropoxy)benzylidene]-N-pyridazin-3-ylpiperidine-1-carboxamide] |
| 503 | COCCOc1cccc(C=C2CCN(C(=O)Nc3cccnn3)CC2)c1 [Example 66, 4-[3-(2-methoxyethoxy)benzylidene]-N-pyridazin-3-ylpiperidine-1-carboxamide] |
| 370 | Cc1cccc(COc2cccc(C=C3CCN(C(=O)Nc4cccnn4)CC3)c2)n1 [Example 67, 4-{3-[(6-methylpyridin-2-yl)methoxy]benzylidene}-N-pyridazin-3-ylpiperidine-1-carboxamide] |
| 452 | O=C(Nc1cccnn1)N1CCC(=Cc2cccc(OCc3nccs3)c2)CC1 [Example 68, N-pyridazin-3-yl-4-[3-(1,3-thiazol-2-ylmethoxy)benzylidene]piperidine-1-carboxamide] |
| 294 | O=C(Nc1cccnn1)N1CCC(=Cc2cccc(OCc3cccc(C(F)(F)F)n3)c2)CC1 [Example 71, N-pyridazin-3-yl-4-(3-{[6-(trifluoromethyl)pyridin-2-yl]methoxy}benzylidene)piperidine-1-carboxamide] |
| 36139 | O=C(Nc1cccnn1)N1CCC(=Cc2cccc(OCCc3ccccc3)c2)CC1 [Example 75, 4-[3-(2-phenylethoxy)benzylidene]-N-pyridazin-3-ylpiperidine-1-carboxamide] |
| 207 | COc1ccc(CCOc2cccc(C=C3CCN(C(=O)Nc4cccnn4)CC3)c2)cc1 [Example 77, 4-{3-[2-(4-methoxyphenyl)ethoxy]benzylidene}-N-pyridazin-3-ylpiperidine-1-carboxamide] |
| 325 | O=C(Nc1cccnn1)N1CCC(=Cc2cccc(OCCN3CCCCCC3)c2)CC1 [Example 80, 4-[3-(2-azepan-1-ylethoxy)benzylidene]-N-pyridazin-3-ylpiperidine-1-carboxamide] |
| 22138 | O=C(Nc1cccnn1)N1CCC(=Cc2cccc(OCCC3CC3)c2)CC1 [Example 83, 4-[3-(2-cyclopropylethoxy)benzylidene]-N-pyridazin-3-ylpiperidine-1-carboxamide] |
| 6267 | O=C(Nc1cccnn1)N1CCC(=Cc2cccc(OCC3CCCC3)c2)CC1 [Example 86, 4-[3-(cyclopentylmethoxy)benzylidene]-N-pyridazin-3-ylpiperidine-1-carboxamide] |
| 25980 | O=C(Nc1cccnn1)N1CCC(=Cc2cccc(OCCc3cccc(F)c3)c2)CC1 [Example 89, 4-{3-[2-(3-fluorophenyl)ethoxy]benzylidene}-N-pyridazin-3-ylpiperidine-1-carboxamide] |
| 7398 | CC(Cc1ccccc1)Oc1cccc(C=C2CCN(C(=O)Nc3cccnn3)CC2)c1 (stereo not drawn) [Example 91, 4-[3-(1-methyl-2-phenylethoxy)benzylidene]-N-pyridazin-3-ylpiperidine-1-carboxamide] |
| 5205 | O=C(Nc1cccnn1)N1CCC(=Cc2cccc(OCCc3ccc(F)cc3)c2)CC1 [Example 92, 4-{3-[2-(4-fluorophenyl)ethoxy]benzylidene}-N-pyridazin-3-ylpiperidine-1-carboxamide] |
| 3238 | O=C(Nc1cccnn1)N1CCC(=Cc2cccc(OC3CCC(C(F)(F)F)CC3)c2)CC1 (stereo not drawn) [Example 97, N-pyridazin-3-yl-4-(3-{[4-(trifluoromethyl)cyclohexyl]oxy}benzylidene)piperidine-1-carboxamide] |

The remaining lines, values behind:

| SMILES | hFAAH KInact/K [M⁻¹ s⁻¹] |
| --- | --- |
| Cc1noc(C)c1COc1cccc(C=C2CCN(C(=O)Nc3cccnn3)CC2)c1 [Example 65, 4-{3-[(3,5-dimethylisoxazol-4-yl)methoxy]benzylidene}-N-pyridazin-3-ylpiperidine-1-carboxamide] | 130 |
| Cc1cc(COc2cccc(C=C3CCN(C(=O)Nc4cccnn4)CC3)c2)nn1C [Example 70, 4-{3-[(1,5-dimethyl-1H-pyrazol-3-yl)methoxy]benzylidene}-N-pyridazin-3-ylpiperidine-1-carboxamide] | 116 |
| O=C(Nc1cccnn1)N1CCC(=Cc2cccc(OCCCC(F)(F)F)c2)CC1 [Example 72, N-pyridazin-3-yl-4-[3-(4,4,4-trifluorobutoxy)benzylidene]piperidine-1-carboxamide] | 16800 |
| O=C(Nc1cccnn1)N1CCC(=Cc2cccc(OCc3ccc(C(F)(F)F)cn3)c2)CC1 [Example 73, N-pyridazin-3-yl-4-(3-{[5-(trifluoromethyl)pyridin-2-yl]methoxy}benzylidene)piperidine-1-carboxamide] | 1470 |
| Cc1ccc(COc2cccc(C=C3CCN(C(=O)Nc4cccnn4)CC3)c2)cn1 [Example 74, 4-{3-[(6-methylpyridin-3-yl)methoxy]benzylidene}-N-pyridazin-3-ylpiperidine-1-carboxamide] | 188 |
| O=C(Nc1cccnn1)N1CCC(=Cc2cccc(OCC3CCOCC3)c2)CC1 [Example 76, N-pyridazin-3-yl-4-[3-(tetrahydro-2H-pyran-4-ylmethoxy)benzylidene]piperidine-1-carboxamide] | 2548 |
| O=C(Nc1cccnn1)N1CCC(=Cc2cccc(OCCc3ccsc3)c2)CC1 [Example 78, N-pyridazin-3-yl-4-{3-[2-(3-thienyl)ethoxy]benzylidene}piperidine-1-carboxamide] | 35803 |
| CC1(C)CCC(Oc2cccc(C=C3CCN(C(=O)Nc4cccnn4)CC3)c2)CC1 [Example 81, 4-{3-[(4,4-dimethylcyclohexyl)oxy]benzylidene}-N-pyridazin-3-ylpiperidine-1-carboxamide] | 3744 |
| O=C(Nc1cccnn1)N1CCC(=Cc2cccc(OCC3CCC(F)(F)CC3)c2)CC1 [Example 82, 4-{3-[(4,4-difluorocyclohexyl)methoxy]benzylidene}-N-pyridazin-3-ylpiperidine-1-carboxamide] | 6850 |
| O=C(Nc1cccnn1)N1CCC(=Cc2cccc(OCCc3cccnc3)c2)CC1 [Example 84, N-pyridazin-3-yl-4-[3-(2-pyridin-3-ylethoxy)benzylidene]piperidine-1-carboxamide] | 10747 |
| O=C(Nc1cccnn1)N1CCC(=Cc2cccc(OCCc3ccccn3)c2)CC1 [Example 87, N-pyridazin-3-yl-4-[3-(2-pyridin-2-ylethoxy)benzylidene]piperidine-1-carboxamide] | 3485 |
| O=C(Nc1cccnn1)N1CCC(=Cc2cccc(OCc3cc4ccccc4o3)c2)CC1 [Example 88, 4-[3-(1-benzofuran-2-ylmethoxy)benzylidene]-N-pyridazin-3-ylpiperidine-1-carboxamide] | 629 |
| CC1(COc2cccc(C=C3CCN(C(=O)Nc4cccnn4)CC3)c2)CC1 [Example 93, 4-{3-[(1-methylcyclopropyl)methoxy]benzylidene}-N-pyridazin-3-ylpiperidine-1-carboxamide] | 2090 |
| O=C(Nc1cccnn1)N1CCC(=Cc2cccc(OCCCc3cnoc3)c2)CC1 [Example 94, 4-[3-(3-isoxazol-4-ylpropoxy)benzylidene]-N-pyridazin-3-ylpiperidine-1-carboxamide] | 27713 |
| CC(C)(F)CCOc1cccc(C=C2CCN(C(=O)Nc3cccnn3)CC2)c1 [Example 95, 4-[3-(3-fluoro-3-methylbutoxy)benzylidene]-N-pyridazin-3-ylpiperidine-1-carboxamide] | 3869 |
